SMILES strings stand for the structures.

This assay has as its target T1, human TLR9 (Homo sapiens, UniProt Q9NR96).
T1 sequence (Q9NR96 26-1032): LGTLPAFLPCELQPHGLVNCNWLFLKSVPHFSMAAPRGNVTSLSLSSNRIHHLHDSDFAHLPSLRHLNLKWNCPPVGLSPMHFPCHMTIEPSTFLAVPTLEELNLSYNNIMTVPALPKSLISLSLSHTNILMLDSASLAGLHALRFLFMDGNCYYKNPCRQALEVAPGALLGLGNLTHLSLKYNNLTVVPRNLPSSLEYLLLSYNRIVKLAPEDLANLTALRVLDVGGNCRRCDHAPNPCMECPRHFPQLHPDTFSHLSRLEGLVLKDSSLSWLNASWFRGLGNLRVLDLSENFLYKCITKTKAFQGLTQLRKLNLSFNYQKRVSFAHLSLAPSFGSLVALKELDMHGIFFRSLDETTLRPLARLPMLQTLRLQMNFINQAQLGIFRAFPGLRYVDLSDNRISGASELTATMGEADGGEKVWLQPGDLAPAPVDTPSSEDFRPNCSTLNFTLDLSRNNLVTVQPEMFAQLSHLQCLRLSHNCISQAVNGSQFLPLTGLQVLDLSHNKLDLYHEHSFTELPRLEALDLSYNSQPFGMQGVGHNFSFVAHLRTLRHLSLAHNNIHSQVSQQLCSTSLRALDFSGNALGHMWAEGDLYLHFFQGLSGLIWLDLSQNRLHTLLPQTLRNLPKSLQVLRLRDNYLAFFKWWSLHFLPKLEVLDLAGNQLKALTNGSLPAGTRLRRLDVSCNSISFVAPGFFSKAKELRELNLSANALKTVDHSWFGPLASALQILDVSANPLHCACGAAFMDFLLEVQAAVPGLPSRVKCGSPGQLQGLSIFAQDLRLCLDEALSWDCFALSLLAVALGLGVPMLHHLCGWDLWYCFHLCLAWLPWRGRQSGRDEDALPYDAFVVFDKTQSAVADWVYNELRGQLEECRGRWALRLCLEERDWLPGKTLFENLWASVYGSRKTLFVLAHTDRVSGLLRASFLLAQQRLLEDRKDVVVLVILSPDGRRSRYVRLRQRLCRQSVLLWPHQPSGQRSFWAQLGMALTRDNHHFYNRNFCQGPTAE
In words: HEK293-Blue-hTLR-9 cells assay. The settings on record: HEK293-Blue-hTLR9 cells, ODN2006 stimulation, 20 hrs, SEAP reporter; read-out: HEK/hTLR9 IC50. Format: cell-based. The source says: HEK293-Blue-hTLR-9 Cells Assay:
A stable HEK293-Blue-hTLR-9 cell line was purchased from InvivoGen (Cat. #: hkb-htlr9, San Diego. California USA). These cells were originally designed for studying the stimulation of human TLR9 by monitoring the activation of NF-κB. A SEAP (secreted embryonic alkaline phosphatase) reporter gene was placed under the control of the IFN-β minimal promoter fused to five NF-κB and AP-1-binding sites. The SEAP was induced by activating NF-κB and AP-1 via stimulating HEK-Blue hTLR9 cells with TLR9 ligands. Therefore the reporter expression was declined by TLR9 antagonist under the stimulation of a ligand, such as ODN2006 (Cat. #: tlrl-2006-1, Invivogen, San Diego, California USA), for incubation of 20 hrs. The cell culture supernatant SEAP reporter activity was determined using QUANTI-Blue™ kit (Cat. #: rep-qb1, Invivogen, San Diego, California, USA) at a wavelength of 640 nm, a detection medium that turns purple or blue in the presence of alkaline phosphatase.
HEK293-Blue-hTLR9 cells were incubated at a density of 250.000-450,000 cells/mL in a volume of 170 μL in a 96-well plate in Dulbecco's Modified Eagle's medium (DMEM) containing 4.5 g/L glucose, 50 U/mL penicillin, […], […], 2 mM L-glutamine, 10% (v/v) heat-inactivated fetal bovine serum with addition of 20 μL test compound 1n a serial dilution in the presence of final DMSO at 1% and 10 μL of 20 uM ODN2006 in above DMEM, perform incubation under 37° C. in a CO2 incubator for 20 hrs. Then 20 μL of the supernatant from each well was incubated with 180 μL Quanti-blue substrate solution at 37° C. for 2 h and the absorbance was read at 620˜655 nm using a spectrophotometer. The signaling pathway that TLR9 activation leads to downstream NF-κB activation has been widely accepted, and therefore similar reporter assay was modified for evaluating TLR9 antagonist.
`C[C@@H]1CN(c2ccc(C#N)c3ncccc23)C[C@@H]2c3ccc(N4C[C@@H](N)[C@H](F)C4)cc3CN12` [Example 48, 5-[(4R,10bS)-8-[(3R,4R)-3-amino-4-fluoro-pyrrolidin-1-yl]-4-methyl-3,4,6,10b-tetrahydro-1H-pyrazino[2,1-a]isoindol-2-yl]quinoline-8-carbonitrile]: the IC50 worked out at 193 nM. Turning to `C[C@@H]1CN(c2ccc(C#N)c3ncccc23)C[C@@H]2c3ccc(N[C@@H]4CNC[C@H]4F)cc3CN12` [Example 33, 5-[(4R,10bS)-8-[[(3R,4R)-4-fluoropyrrolidin-3-yl]amino]-4-methyl-3,4,6,10b-tetrahydro-1H-pyrazino[2,1-a]isoindol-2-yl]quinoline-8-carbonitrile], the IC50 worked out at 100 nM.

Regarding `N#Cc1ccc(N2CCN3Cc4cc(N5CCNCC5)ccc4C3C2)c2scnc12` (stereo not shown) [Example 4, 7-(8-piperazin-1-yl-3,4,6,10b-tetrahydro-1H-pyrazino[2,1-a]isoindol-2-yl)-1,3-benzothiazole-4-carbonitrile], the IC50 amounted to 101 nM.

With `C[C@@H]1CN(c2ccc(C#N)n3nccc23)C[C@@H]2c3ccc(N4C[C@@H](N)[C@](C)(O)C4)cc3CN12` [Example 108, 4-[(4R,10bS)-8-[(3R,4R)-4-amino-3-hydroxy-3-methyl-pyrrolidin-1-yl]-4-methyl-3,4,6,10b-tetrahydro-1H-pyrazino[2,1-a]isoindol-2-yl]pyrazolo[1,5-a]pyridine-7-carbonitrile], the IC50 stood at 126 nM. With `CO[C@H]1CN(c2ccc3c(c2)CN2C3CN(c3ccc(C#N)c4ncccc34)C[C@H]2C)C[C@@H]1N` (single isomer, unassigned) [Example 16A], the IC50 is 113 nM. `C[C@@H]1CN(c2ccc(C#N)c3ncccc23)C[C@@H]2c3ccc(N4CC(N)C5(COC5)C4)cc3CN12` (stereo partly drawn) [Example 18, 5-[(4R,10bS)-8-(5-amino-2-oxa-7-azaspiro[3.4]octan-7-yl)-4-methyl-3,4,6,10b-tetrahydro-1H-pyrazino[2,1-a]isoindol-2-yl]quinoline-8-carbonitrile]: the IC50 was determined as 114 nM.

As to `C[C@@H]1CN(c2ccc(C#N)c3ncccc23)C[C@@H]2c3ccc(N4CCC(N)(CO)C4)cc3CN12` (stereo partly drawn) [Example 19, 5-[(4R,10bS)-8-[3-amino-3-(hydroxymethyl)pyrrolidin-1-yl]-4-methyl-3,4,6,10b-tetrahydro-1H-pyrazino[2,1-a]isoindol-2-yl]quinoline-8-carbonitrile], the IC50 amounted to 65.3 nM.

With `CO[C@H]1CCN(c2ccc3c(c2)CN2[C@H](C)CN(c4ccc(C#N)n5nccc45)C[C@H]32)C[C@H]1N` [Example 106, 4-[(4R,10bS)-8-[(3R,4S)-3-amino-4-methoxy-1-piperidyl]-4-methyl-3,4,6,10b-tetrahydro-1H-pyrazino[2,1-a]isoindol-2-yl]pyrazolo[1,5-a]pyridine-7-carbonitrile], the IC50 is 135 nM. Next, `C[C@@H]1CN(c2ccc(C#N)c3nccnc23)C[C@@H]2c3ccc(N4CCNCC4)cc3CN12` [Example 7, 8-[(4R,10bS)-4-methyl-8-piperazin-1-yl-3,4,6,10b-tetrahydro-1H-pyrazino[2,1-a]isoindol-2-yl]quinoxaline-5-carbonitrile]: 99.2 nM; `C[C@@H]1CN(c2ccc(C#N)c3ncccc23)C[C@@H]2c3ccc(N4C[C@@H](N)[C@@H](F)C4)cc3CN12` [Example 47, 5-[(4R,10bS)-8-[(3R,4S)-3-amino-4-fluoro-pyrrolidin-1-yl]-4-methyl-3,4,6,10b-tetrahydro-1H-pyrazino[2,1-a]isoindol-2-yl]quinoline-8-carbonitrile]: 146 nM; `C[C@@H]1CN(c2ccc(C#N)c3ncccc23)C[C@@H]2c3ccc(N4CCNC[C@@](C)(O)C4)cc3CN12` [Example 55B, 5-[(4R,10bS)-8-[(6R)-6-hydroxy-6-methyl-1,4-diazepan-1-yl]-4-methyl-3,4,6,10b-tetrahydro-1H-pyrazino[2,1-a]isoindol-2-yl]quinoline-8-carbonitrile]: 156 nM. For the compound `C[C@@H]1CN(c2ccc(C#N)n3nccc23)C[C@@H]2c3ccc(N4C[C@@H](N)[C@H](O)C4)cc3CN12` [Example 110, 4-[(4R,10bS)-8-[(3R,4R)-3-amino-4-hydroxy-pyrrolidin-1-yl]-4-methyl-3,4,6,10b-tetrahydro-1H-pyrazino[2,1-a]isoindol-2-yl]pyrazolo[1,5-a]pyridine-7-carbonitrile], the IC50 came out at 53 nM. Turning to `CO[C@@H]1CN(c2ccc3c(c2)CN2C3CN(c3ccc(C#N)c4ncccc34)C[C@H]2C)C[C@@H]1N` (relative stereo) [Example 17, 5-[(4R,10bS)-8-[cis-3-amino-4-methoxy-pyrrolidin-1-yl]-4-methyl-3,4,6,10b-tetrahydro-1H-pyrazino[2,1-a]isoindol-2-yl]quinoline-8-carbonitrile], the IC50 turned out to be 81 nM. As for `C[C@@H]1CN(c2ccc(C#N)c3ncccc23)C[C@@H]2c3ccc(NC4CNCCOC4)cc3CN12` (stereo partly drawn) [Example 56, 5-[(4R,10bS)-4-methyl-8-(1,4-oxazepan-6-ylamino)-3,4,6,10b-tetrahydro-1H-pyrazino[2,1-a]isoindol-2-yl]quinoline-8-carbonitrile], the IC50 stood at 103 nM. With `C[C@@H]1CN(c2ccc(C#N)c3ncccc23)C[C@@H]2c3ccc(N4CCNCC(O)C4)cc3CN12` (stereo partly drawn) [Example 15, 5-[(4R,10bS)-8-(6-hydroxy-1,4-diazepan-1-yl)-4-methyl-3,4,6,10b-tetrahydro-1H-pyrazino[2,1-a]isoindol-2-yl]quinoline-8-carbonitrile], the IC50 was found to be 83.2 nM. Consider `C[C@@H]1CN(c2ccc(C#N)c3ncccc23)C[C@@H]2c3ccc(N4C[C@@H](N)[C@](C)(O)C4)cc3CN12` [Example 45, 5-[(4R,10bS)-4-methyl-8-[trans-(3R,4R)-4-amino-3-hydroxy-3-methyl-pyrrolidin-1-yl]-3,4,6,10b-tetrahydro-1H-pyrazino[2,1-a]isoindol-2-yl]quinoline-8-carbonitrile], for which the IC50 was 78.5 nM. Turning to `CO[C@H]1CN(c2ccc3c(c2)CN2[C@H](C)CN(c4ccc(C#N)n5nccc45)C[C@H]32)C[C@@H]1N` [Example 95, 4-[(4R,10bS)-8-[(3S,4S)-3-amino-4-methoxy-pyrrolidin-1-yl]-4-methyl-3,4,6,10b-tetrahydro-1H-pyrazino[2,1-a]isoindol-2-yl]pyrazolo[1,5-a]pyridine-7-carbonitrile], the IC50 turned out to be 215 nM. As to `[2H]c1ccc2c(N3C[C@@H](C)N4Cc5cc(N6CC(C)(N)C6)ccc5[C@H]4C3)ccc(C#N)c2n1` [Example 92, 5-[(4R,10bS)-8-(3-amino-3-methyl-azetidin-1-yl)-4-methyl-3,4,6,10b-tetrahydro-1H-pyrazino[2,1-a]isoindol-2-yl]-2-deuterio-quinoline-8-carbonitrile], the IC50 turned out to be 148 nM. Regarding `C[C@@H]1CN(c2ccc(C#N)c3ncccc23)C[C@@H]2c3ccc(N[C@H]4CNC[C@@H]4F)cc3CN12` [Example 31, 5-[(4R,10bS)-8-[[(3S,4S)-4-fluoropyrrolidin-3-yl]amino]-4-methyl-3,4,6,10b-tetrahydro-1H-pyrazino[2,1-a]isoindol-2-yl]quinoline-8-carbonitrile], the IC50 was determined as 93.7 nM.

For the origin of these results see US12157746B2, “Tetrahydro-1H-pyrazino[2,1-a]isoindolylquinoline compounds for the treatment of autoimmune disease” (F. HOFFMANN-LA ROCHE AG, priority 2018, dated 2024).
